From US4532255A, “Amidine compounds and anticomplement agent comprising same” (Torii & Co., Ltd., priority 1980, dated 1985)

Legend:
C1s = molecular target: T1, C1s (Homo sapiens, UniProt P09871); test: biochemical; conditions: ATEE hydrolysis; read-out: Anti-C1 activity, C1s ID50
T1 sequence (P09871 438-688 limits assumed): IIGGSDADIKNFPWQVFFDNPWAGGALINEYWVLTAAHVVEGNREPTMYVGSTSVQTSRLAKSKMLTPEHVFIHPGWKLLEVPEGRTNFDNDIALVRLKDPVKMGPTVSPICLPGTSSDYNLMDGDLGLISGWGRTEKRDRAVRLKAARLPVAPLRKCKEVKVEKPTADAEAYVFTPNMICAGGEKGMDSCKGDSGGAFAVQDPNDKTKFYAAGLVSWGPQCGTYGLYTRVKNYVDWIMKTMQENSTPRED
T1 sequence (P09871 16-437 partner limits assumed): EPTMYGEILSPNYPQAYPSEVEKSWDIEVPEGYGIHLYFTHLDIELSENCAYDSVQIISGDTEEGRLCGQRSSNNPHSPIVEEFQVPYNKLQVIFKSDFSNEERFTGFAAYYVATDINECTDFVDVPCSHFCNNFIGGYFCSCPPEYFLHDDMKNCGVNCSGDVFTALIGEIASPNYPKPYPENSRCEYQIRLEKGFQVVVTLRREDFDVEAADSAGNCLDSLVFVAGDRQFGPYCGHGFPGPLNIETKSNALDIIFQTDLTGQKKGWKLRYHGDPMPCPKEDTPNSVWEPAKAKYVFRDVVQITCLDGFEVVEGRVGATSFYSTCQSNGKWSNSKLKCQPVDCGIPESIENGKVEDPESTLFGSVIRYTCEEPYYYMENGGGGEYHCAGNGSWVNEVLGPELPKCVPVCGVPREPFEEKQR
Experimental: The anti-Cl esterase (Clr, Cls) activity was determined according to the method of Okamura et al. [K. Okamura, M. Muramatsu and S. Fujii, Biochem. Biophys. […] The figures in Table 2 have the following meanings:
Cls: Molar concentration of the test compound which inhibits 50% of the ability of Cls to hydrolyse ATEE (acetyltyrosin ethyl ester).

Kallikrein = test: Anti-kallikrein activity (hydrolysis of TAME); format: biochemical; conditions: molar concentration inhibiting 50% of TAME hydrolysis; read-out: Kallikrein ID50
Experimental: (§1) The anti-trypsin, anti-plasmin, anti-kallikrein and anti-thrombin activities were determined according to the method of Muramatsu et al. [M. Muramatsu, T. Onishi, S. Makino, Y. Hayashi and S. Fujii, J. of Biochem., 58, 214 (1965)]. The data summarized in Table 1 are expressed in terms of molar concentration (ID50) of the test compound which inhibits 50% of the activity of each enzyme to hydrolyze TAME (tosylalginine methyl ester). The compound No. corresponds to the compound number shown in Examples.

Trypsin = molecular target: T2, Trypsin (Bos taurus, UniProt P00760); test: Anti-trypsin activity (hydrolysis of TAME); format: biochemical; conditions: for IC50: molar concentration inhibiting 50% of TAME hydrolysis, read-out: Trypsin ID50; for inhibition at 10 µM: at 1×10^-5 M, read-out: Trypsin percentage inhibition
T2 sequence (P00760 24-246): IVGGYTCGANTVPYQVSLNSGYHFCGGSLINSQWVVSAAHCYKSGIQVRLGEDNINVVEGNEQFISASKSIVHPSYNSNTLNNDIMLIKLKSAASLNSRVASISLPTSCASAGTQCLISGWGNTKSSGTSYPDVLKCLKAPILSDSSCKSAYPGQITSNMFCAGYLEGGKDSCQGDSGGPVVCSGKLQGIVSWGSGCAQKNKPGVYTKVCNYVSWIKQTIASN
Experimental: (§2) The anti-trypsin, anti-plasmin, anti-kallikrein and anti-thrombin activities were determined according to the method of Muramatsu et al. [M. Muramatsu, T. Onishi, S. Makino, Y. Hayashi and S. Fujii, J. of Biochem., 58, 214 (1965)]. […] The compound No. corresponds to the compound number shown in Examples.

Plasmin = Plasmin (Homo sapiens, UniProt P00747); test: Anti-plasmin activity (hydrolysis of TAME); format: biochemical; conditions: for IC50: molar concentration inhibiting 50% of TAME hydrolysis, read-out: Plasmin ID50
Plasmin, sequence (P00747 581-810 limits assumed, species assumed): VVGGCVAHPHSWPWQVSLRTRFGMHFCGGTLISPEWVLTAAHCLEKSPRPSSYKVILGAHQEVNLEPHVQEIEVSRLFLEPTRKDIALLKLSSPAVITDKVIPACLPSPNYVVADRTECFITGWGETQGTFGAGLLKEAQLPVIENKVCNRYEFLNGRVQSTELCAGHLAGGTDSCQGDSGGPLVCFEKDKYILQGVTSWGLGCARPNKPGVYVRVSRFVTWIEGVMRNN
Plasmin, sequence (P00747 97-580 partner limits assumed, species assumed): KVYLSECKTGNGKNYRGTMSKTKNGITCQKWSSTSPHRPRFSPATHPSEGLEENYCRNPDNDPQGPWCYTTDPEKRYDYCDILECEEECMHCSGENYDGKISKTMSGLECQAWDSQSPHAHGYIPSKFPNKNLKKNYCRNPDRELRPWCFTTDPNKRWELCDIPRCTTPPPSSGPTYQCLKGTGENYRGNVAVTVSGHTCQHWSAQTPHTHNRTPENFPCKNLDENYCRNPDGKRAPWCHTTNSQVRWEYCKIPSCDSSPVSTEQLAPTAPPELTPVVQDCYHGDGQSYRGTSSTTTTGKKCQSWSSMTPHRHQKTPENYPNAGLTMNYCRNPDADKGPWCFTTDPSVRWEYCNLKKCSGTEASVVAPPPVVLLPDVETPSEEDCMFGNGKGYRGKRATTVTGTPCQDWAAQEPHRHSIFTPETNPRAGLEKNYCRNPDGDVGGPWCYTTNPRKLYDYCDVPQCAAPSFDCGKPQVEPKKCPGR
Experimental: as §2

C1r = molecular target: T3, C1r (Homo sapiens, UniProt P00736); test: Anti-C1 esterase (C1r) activity (hydrolysis of AAME); format: biochemical; conditions: AAME hydrolysis; read-out: Anti-C1 activity, C1r ID50
T3 sequence (P00736 464-705 limits assumed): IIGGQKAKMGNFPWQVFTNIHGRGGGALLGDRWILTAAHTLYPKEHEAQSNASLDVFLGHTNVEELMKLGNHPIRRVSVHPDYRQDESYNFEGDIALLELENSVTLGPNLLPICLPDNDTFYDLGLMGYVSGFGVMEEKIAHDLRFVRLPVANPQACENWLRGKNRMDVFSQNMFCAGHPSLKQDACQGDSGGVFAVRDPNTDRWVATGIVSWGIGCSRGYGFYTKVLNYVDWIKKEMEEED
T3 sequence (P00736 18-463 partner limits assumed): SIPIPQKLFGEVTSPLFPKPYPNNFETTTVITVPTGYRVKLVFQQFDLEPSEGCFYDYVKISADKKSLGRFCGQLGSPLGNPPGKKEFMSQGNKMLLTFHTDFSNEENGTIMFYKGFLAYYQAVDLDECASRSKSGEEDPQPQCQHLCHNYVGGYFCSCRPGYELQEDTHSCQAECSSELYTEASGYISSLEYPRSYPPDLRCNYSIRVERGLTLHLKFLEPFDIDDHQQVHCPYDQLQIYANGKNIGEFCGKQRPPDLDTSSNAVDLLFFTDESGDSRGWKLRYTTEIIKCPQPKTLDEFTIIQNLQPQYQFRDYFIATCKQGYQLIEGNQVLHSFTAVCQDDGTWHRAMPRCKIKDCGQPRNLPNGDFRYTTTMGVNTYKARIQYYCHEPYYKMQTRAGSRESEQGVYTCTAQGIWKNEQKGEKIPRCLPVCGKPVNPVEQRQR
Experimental: The anti-Cl esterase ([…]) activity was determined according to the method of Okamura et al. [K. Okamura, M. Muramatsu and S. Fujii, Biochem. Biophys.

Thrombin = Thrombin (Homo sapiens, UniProt P00734); test: biochemical; conditions: for IC50: molar concentration inhibiting 50% of TAME hydrolysis, read-out: Thrombin ID50; for inhibition at 10 µM: at 1×10^-5 M, read-out: Thrombin percentage inhibition
Experimental: as §1

[1] = tested on: complement mediated hemolysis; test: Inhibition of complement mediated hemolysis; format: cell-based
Experimental: The principle of this method is based on the fact that hemolysis is caused by the activation of complement, when the latter is added to a complex (immune complex) of erythrocytes and the antibody thereof. The degree of hemolysis varies in proportion to the amount of complement added. Therefore, when a known amount of complement admixed with a C1 esterase inhibitor is used, the hemolysis must be suppressed in proportion to the inhibitory activity.

SMILES	IC50 (C1s) [µM]	IC50 (Kallikrein) [µM]	IC50 (Trypsin) [µM]	IC50 (Plasmin) [µM]	IC50 (C1r) [µM]	IC50 (Thrombin) [µM]	Inhibition of complement mediated hemolysis (%) ([1]; 1 × 10^-4)	Inhibition of complement mediated hemolysis (%) ([1]; 1 × 10^-5)	Inhibition of complement mediated hemolysis (%) ([1]; 1 × 10^-6)	Inhibition of complement mediated hemolysis (%) ([1]; 1 × 10^-7)	inhibition at 10 µM (Trypsin) [%]	inhibition at 10 µM (Plasmin; at 1×10^-5 M, read-out: Plasmin percentage inhibition) [%]	inhibition at 10 µM (Thrombin) [%]
N=C(N)c1ccc2cc(OC(=O)c3ccccc3)ccc2c1 [Compound 1, 6-amidino-2-naphthyl benzoate]	0.1	30	3	2	0.4	5	100	100	91	27			
Cc1ccccc1C(=O)Oc1ccc2cc(C(=N)N)ccc2c1 [Compound 2, 6-amidino-2-naphthyl 2-methylbenzoate]		> 10		> 10		> 10					38		
Cc1ccc(C(=O)Oc2ccc3cc(C(=N)N)ccc3c2)cc1 [Compound 4]	0.07	8	1	0.5	0.4	20		85	37	21			
CC(C)(C)c1ccc(C(=O)Oc2ccc3cc(C(=N)N)ccc3c2)cc1 [Compound 5]		9	0.3	2		3							
CC(=O)Oc1ccccc1C(=O)Oc1ccc2cc(C(=N)N)ccc2c1 [Compound 12]	3	> 10			3	> 10	87	55	27	3	24	40	
COC(=O)c1ccc(C(=O)Oc2ccc3cc(C(=N)N)ccc3c2)cc1 [Compound 14]	6		0.3	0.5	7	3	61	15	1	3			
N=C(N)c1ccc2cc(OC(=O)c3ccc([N+](=O)[O-])cc3)ccc2c1 [Compound 18, 6-amidino-2-naphthyl 4-nitrobenzoate]	4	> 10	10	3	4	2	92	97	56	20			
N=C(N)c1ccc2cc(OC(=O)c3ccc(CNC(=O)OCc4ccccc4)cc3)ccc2c1 [Compound 21, 6-amidino-2-naphthyl 4-benzyloxycarbonylaminomethylbenzoate]	0.5	10	0.6		0.7	> 10	0	66	14	0			
CN(C)c1cccc(C(=O)Oc2ccc3cc(C(=N)N)ccc3c2)c1 [Compound 23, 6-amidino-2-naphthyl 3-dimethylaminobenzoate]		100	20	20		10							
CN(C)c1ccc(C(=O)Oc2ccc3cc(C(=N)N)ccc3c2)cc1 [Compound 24, 6-amidino-2-naphthyl 4-dimethylaminobenzoate]		50	0.3	20		60							
CC(=O)Nc1ccc(C(=O)Oc2ccc3cc(C(=N)N)ccc3c2)cc1 [Compound 25, 6-amidino-2-naphthyl 4-acetylaminobenzoate]	0.4	100			0.7	60	64	26	1	0			
N=C(N)c1ccc2cc(OC(=O)Cc3ccc(Cl)cc3)ccc2c1 [Compound 44]	> 10				> 10		89	21	0	18			
Cc1ccc(CCC(=O)Oc2ccc3cc(C(=N)N)ccc3c2)cc1 [Compound 48]		> 10	5	2									43
CC(=O)Oc1ccc(CCC(=O)Oc2ccc3cc(C(=N)N)ccc3c2)cc1 [Compound 50]							49	16	1	11			
N=C(N)c1ccc2cc(OC(=O)CCCc3ccccc3)ccc2c1 [Compound 54, 6-amidino-2-naphthyl 4-phenylbutyrate]	> 10				> 10		12	10	10	4			
Cc1ccc(C=CC(=O)Oc2ccc3cc(C(=N)N)ccc3c2)cc1 [Compound 58]		> 10	2	0.5									22
COc1ccc(C=CC(=O)Oc2ccc3cc(C(=N)N)ccc3c2)cc1OC [Compound 59]		1	0.1	0.6		6							
N=C(N)c1ccc2cc(OC(=O)C=Cc3ccc([N+](=O)[O-])cc3)ccc2c1 [Compound 62, 6-amidino-2-naphthyl 4-nitrocinnamate]		> 10	3	2									24
N=C(N)c1ccc2cc(OC(=O)COc3ccc(Cl)cc3Cl)ccc2c1 [Compound 70]	> 10				> 10		26	1	0	2			
